According to patent US9066947B2, “Indolyl-substituted pyrazino[1,2-b]isoquinolines for cancer treatment” (Everest Biosciences, Inc., priority 2009, dated 2015):

What was measured:
[1] = system: PC-3 prostate cancer cells; test: Cell proliferation assay (trypan blue viable cell count) and IC50 determination; format: cell-based, human; conditions: PC-3 cells; for IC50: Homo sapiens, viable cells after 48 hours, read-out: IC50 for cell growth inhibition; for concentration from which statistically significant cell growth inhibition started: 48 hours
Protocol: All new synthesized compounds and Etoposide were first dissolved in 100% DMSO at initial concentration of 100 mM, and then diluted at final concentration of 200 uM in culture medium. Commercial form of Avastin (25 mg/ml) was diluted to appropriate concentrations in culture medium.
(§1) Hormone-independent and metastatic PC-3 prostate cancer cells were purchased from the American Type Culture Collection (Manassas, Va., USA) and cultured in RPMI-1640 supplemented with 10% fetal bovine serum. Etoposide was purchased from Sigma, Avastin from Roche.
For cell counting a total of 6×10^4 cells at a density of 0.3×10^6/ml were seeded in 96-well plate. The cells were treated with compounds, Etoposide or Avastin as positive controls at 1 uM, 5 uM, 10 uM, 20 uM, 50 uM, 100 uM for 48 hours. For Avastin 5 uM, 20 uM and 50 uM concentrations were used. The cells were labeled with trypan blue and the viable cells were quantified.

[2] = system: PC-3 prostate cancer cells; test: Annexin V-apoptosis assay; format: cell-based, human; conditions: 48 hours; for apoptotic cell number versus control and Etoposide: 50 uM and 100 uM
Protocol: as §1
Cells were treated with 50 uM and 100 uM compounds and Etoposide for 48 hours, harvested, washed with PBS and resuspended in binding buffer (0.01 M HEPES pH 7.4, 0.14 M NaCl, […] CaCl2) (BD Bioscience, san Jose, Calif., USA), stained with […] annexin V and 7-AAD (BD Bioscience). The cells were incubated for 15 min at room temperature in the dark, and the rate of apoptosis was measured by flow cytometry (Calibur, BD) and analyzed using FCS Express Professional software (De NoVo software, CA, USA).

[3] = system: PC-3 prostate cancer cells; test: Cell cycle analysis; format: cell-based, human; conditions: for G2/M phase blockage: 50 uM and 100 uM, analogue 3 statement at 100 uM
Protocol: as §1
Cells were harvested after the treatment, then fixed in ice-cold 70% EtOH. Cells then were washed with PBS and incubated in DNA staining buffer, containing 1 mg/ml sodium citrate (Sigma), 0.1 mg/ml propidium iodide (Sigma), 3 ul/ml TritonX-100, 0.02 mg/ml RNaseA (Sigma) for 30 min at 4° C. The cell cycle profiles were measured in a FACS Calibur cytofluorometer (BD) and analyzed using FCS Express Professional (De NoVo software, CA, USA) and Multicycle (Phoenix Flow Systems, Inc., CA, USA) softwares.

[4] = system: PC-3 tumors; test: PC-3 prostate cancer xenograft mouse model of tumor growth and metastasis; format: in vivo, athymic NMRI nude mice; conditions: tumors about 250 mm3, IV once every other day for 14 days; Etoposide 20 mg/kg, Substance X 40 mg/kg (FIG. 4)
From the text: Athymic NMRI nude mice between 6-8 weeks old (Taconic; Bomholt, Denmark) were used. Prostate cancer xenograft mouse model was created by implanting hormone-independent PC3 tumor cells subcutaneously into athymic nude mice as previously described (Wegiel B, Bjartell A, Tuomela J, et al.: Multiple cellular mechanisms related to cyclin Al in prostate cancer invasion and metastasis. Journal of the National Cancer Institute 100: 10221036, 2008).
PC-3 cells were purchased from American Type Culture Collection (Manassas, V A) and cultured in RPMI-1640 supplemented with 10% Fetal Bovine Serum. PC-3 cells at 1×10^6/per mouse were used. The mice were divided into three groups (6 mice per group). The first group allowed tumors to grow between 170-400 mm^3 in size before starting the treatment. The second group allowed tumors to grow between 550-650 mm^3 in size before starting the treatment. The third group allowed tumors to grow between 700-800 mm^3 in size before starting the treatment. The tumor diameters were measured twice weekly using calipers. The tumor volumes were calculated using an equation of a*(b2/2) where a and b represent the length and width of the tumor, respectively.
The treatment of the compound of Example 1 (also referred to herein as “Substance X”) or PBS containing 5% DMSO (vehicle) as Control was started when tumors reached the desired size as described above. In the first experimental setting, Substance X was administered intravenously once every other day. In the second experimental setting, Substance X was administrated orally once every other day. Tumor growth was assessed periodically as described in Results. The mice were sacrificed after treatment by euthanization via isofluorene inhalation. Lymph node, liver, lung, spleen and femurs were removed from each mouse. Half of the tumor tissues were used for histology and immunohistochemical analysis. For histology analysis, tissues were fixed in 4% paraformaldehyde and embedded in paraffin. The sections were stained with hematoxylineosin (H&E) or imunohistochemical stained with antibodies and analyzed under an optical microscope. The other half of the tissues were used for protein analysis and thus were snapfrozen in liquid nitrogen. The body weights of the mice on the first and last day of the treatment were collected and compared. Tumor invasion and metastasis were examined in various tissues from the sacrificed mice.
For a comparison study, mice with tumors at 190-250 mm^3 in size were treated with the cytotoxic drug Etoposide (Sigma) at a dose of 20 mg/kg via IV injection once every other day. The tumor size was measured as described in the Results. Three mice were treated with Etoposide or the vehicle as Control. The mice were sacrificed and the tissues were collected as described above.

For CN1CC(=O)N2[C@H](c3c[nH]c4ccc(Cl)cc34)c3cc4c(cc3C[C@H]2C1=O)OCO4 [Analogue 1, (2S,8S)-2-(5-chloro-1H-indol-3-yl)-6-methyl-13,15-dioxa-3,6-diazatetracyclo-[8.7.0.0^3,8.0^12,16]heptadeca-1(10),11,16-triene-4,7-dione], the IC50 [1] was 36 µM, the “apoptotic cell number versus control and Etoposide” value [2] was “increasing in both early and late apoptotic cell number” and the “Early apoptosis, %” value ([2]; 50 uM) was 10.98%. For the same molecule, the “Late apoptosis/necrosis, %” value ([2]; 50 uM) was 4.23%, the “Total, % (apoptosis)” value ([2]; 50 uM) was 15.21% and the “Early apoptosis, %” value ([2]; 100 uM) was 16.83%. For the same molecule, the “Late apoptosis/necrosis, %” value ([2]; 100 uM) was 8.29%, the “Total, % (apoptosis)” value ([2]; 100 uM) was 25.12% and the “G0/G1, %” value ([3]; 50 uM) was 63.26%. The “S + G2 + M, %” value ([3]; 50 uM) was 36.74%, the G2/M phase blockage [3] was “not” and the “G0/G1, %” value ([3]; 100 uM) was 60.44%. The “S + G2 + M, %” value ([3]; 100 uM) was 39.56%.

With COc1ccc2[nH]cc([C@@H]3c4cc5c(cc4C[C@H]4C(=O)N(C)CC(=O)N34)OCO5)c2c1 [Analogue 2, (2S,8S)-2-(5-methoxy-1H-indol-3-yl)-6-methyl-13,15-dioxa-3,6-diazatetracyclo[8.7.0.0^3,8.0^12,16]heptadeca-1(10),11,16-triene-4,7-dione] the IC50 [1] was 60 µM and the “concentration from which statistically significant cell growth inhibition started” value [1] was 5 µM.

CN1CC(=O)N2[C@H](c3c[nH]c4c3ccc3ccccc34)c3cc4c(cc3C[C@H]2C1=O)OCO4 [Analogue 3, (2S,8S)-6-methyl-2-{1H-naphtho[1,2-b]pyrrol-3-yl}-13,15-dioxa-3,6-diazatetracyclo[8.7.0.0^3,8.0^12,16]heptadeca-1(10),11,16-triene-4,7-dione] was tested, and the IC50 [1] was 32 µM, the “concentration from which statistically significant cell growth inhibition started” value [1] was 5 µM and the “apoptotic cell number versus control and Etoposide” value [2] was “increasing in both early and late apoptotic cell number”. For the same molecule, the “Early apoptosis, %” value ([2]; 50 uM) was 15.21%, the “Late apoptosis/necrosis, %” value ([2]; 50 uM) was 6.55% and the “Total, % (apoptosis)” value ([2]; 50 uM) was 21.76%. For the same molecule, the “Early apoptosis, %” value ([2]; 100 uM) was 17.51%, the “Late apoptosis/necrosis, %” value ([2]; 100 uM) was 5.52% and the “Total, % (apoptosis)” value ([2]; 100 uM) was 23.03%. For the same molecule, the “G0/G1, %” value ([3]; 50 uM) was 67.52%, the “S + G2 + M, %” value ([3]; 50 uM) was 32.48% and the “G0/G1, %” value ([3]; 100 uM) was 51.77%. For the same molecule, the “S + G2 + M, %” value ([3]; 100 uM) was 48.23%.

With CN1CC(=O)N2[C@H](c3cn(C)c4ccccc34)c3cc4c(cc3C[C@H]2C1=O)OCO4 [Analogue 4, (2S,8S)-6-methyl-2-(1-methyl-1H-indol-3-yl)-13,15-dioxa-3,6-diazatetracyclo-[8.7.0.0^3,8.0^12,16]heptadeca-1(10),11,16-triene-4,7-dione] the IC50 [1] was 30 µM and the “concentration from which statistically significant cell growth inhibition started” value [1] was 10 µM.

For CN1CC(=O)N2[C@H](c3cn(Cc4ccccc4)c4ccccc34)c3cc4c(cc3C[C@H]2C1=O)OCO4 [Analogue 5, (2S,8S)-2-(1-benzyl-1H-indol-3-yl)-6-methyl-13,15-dioxa-3,6-diazatetracyclo-[8.7.0.0^3,8.0^12,16]heptadeca-1(10),11,16-triene-4,7-dione], the “effect on PC-3 cell number” value ([1]; 48 hours (FIG. 12)) was “resulted in cell reduction”.

COc1cc([C@@H]2c3cc4c(cc3[C@@H](O[C@@H]3O[C@@H]5CO[C@@H](C)O[C@H]5[C@H](O)[C@H]3O)[C@H]3COC(=O)[C@H]23)OCO4)cc(OC)c1O [Etoposide, reference compound] was tested, and the “tumor growth, comparison of Etoposide and Substance X” value [4] was “grew slowly”, the “Early apoptosis, %” value ([2]; 50 uM) was 9.22% and the “Late apoptosis/necrosis, %” value ([2]; 50 uM) was 6.73%. For the same molecule, the “Total, % (apoptosis)” value ([2]; 50 uM) was 15.95%, the “Early apoptosis, %” value ([2]; 100 uM) was 9.35% and the “Late apoptosis/necrosis, %” value ([2]; 100 uM) was 4.98%. The “Total, % (apoptosis)” value ([2]; 100 uM) was 14.33%, the “G0/G1, %” value ([3]; 50 uM) was 15.91% and the “S + G2 + M, %” value ([3]; 50 uM) was 84.09%. For the same molecule, the G2/M phase blockage [3] was “G2/M phase blockage”, the “G0/G1, %” value ([3]; 100 uM) was 21.39% and the “S + G2 + M, %” value ([3]; 100 uM) was 78.61%.
